Experiments:
[1] = system: Cabbage Looper (Trichoplusia ni); assay: Bioassay on Cabbage Looper (CL), 128-well diet tray assay; assay type: in vivo; details: 168 h, 50 μg/cm^2 on artificial diet, second instar larvae, five to seven days, read-out: CL % Control (or Mortality) rating
Outline: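 One to five second-instar larvae per well on artificial diet surface-treated with 50 μg/cm^2 test molecule (applied in 90:10 acetone-water, dried). Held 5–7 days at 25° C, 14:10 light-dark; percent mortality recorded per well and averaged over eight wells.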

[2] = system: Beet Armyworm (Spodoptera exigua); assay: Bioassay on Beet Armyworm (BAW), 128-well diet tray assay; assay type: in vivo; details: for mortality at 50 µg/cm2: Spodoptera exigua, 168 h, 50 μg/cm^2 on artificial diet, second instar larvae, five to seven days, read-out: BAW % Control (or Mortality) rating

Row | Compound | mortality at 50 µg/cm2 [1] | mortality at 50 µg/cm2 [2] | BAW (Table CD-1) ([2]; 0.05 μg/cm^2) | BAW (Table CD-1) ([2]; 5.0 μg/cm^2) | BAW (Table CD-1) ([2]; 50 μg/cm^2)
1 | O=C(NNc1ncccn1)c1ccc(/C(F)=C/C(c2cc(Cl)c(Cl)c(Br)c2)C(F)(F)F)cc1C(F)(F)F (centres unmarked) [F96, (Z)-4-(3-(3-Bromo-4,5-dichlorophenyl)-1,4,4,4-tetrafluorobut-1-en-1-yl)-N′-(pyrimidin-2-yl)-2-(trifluoromethyl)benzohydrazide] | 50 to 100% | 50 to 100% | – | – | –
2 | O=C(NNc1ncccn1)c1ccc(/C(F)=C/C(c2ccc(Br)c(Br)c2)C(F)(F)F)cc1C(F)(F)F (centres unmarked) [F177, (Z)-4-(3-(3,4-Dibromophenyl)-1,4,4,4-tetrafluorobut-1-en-1-yl)-N′-(pyrimidin-2-yl)-2-(trifluoromethyl)benzohydrazide] | 50 to 100% | 50 to 100% | – | – | –
3 | O=C(NNC1CCCCC1)c1ccc(/C(F)=C/C(c2cc(Cl)c(Cl)c(Cl)c2)C(F)(F)F)cc1C(F)(F)F (centres unmarked) [F137, (Z)—N′-Cyclohexyl-4-(1,4,4,4-tetrafluoro-3-(3,4,5-trichlorophenyl)but-1-en-1-yl)-2-(trifluoromethyl)benzohydrazide] | 50 to 100% | 50 to 100% | – | – | –
4 | C=C(OCC)c1c(Cl)cc(C(/C=C(\F)c2ccc(C(=O)NNc3ncccn3)c(C(F)(F)F)c2)C(F)(F)F)cc1Cl (centres unmarked) [F190, (Z)-4-(3-(3,5-Dichloro-4-(1-ethoxyvinyl)phenyl)-1,4,4,4-tetrafluorobut-1-en-1-yl)-N′-(pyrimidin-2-yl)-2-(trifluoromethyl)benzohydrazide] | 50 to 100% | 50 to 100% | – | – | –
5 | O=C(Nn1ccc2ccccc21)c1ccc(/C(F)=C/C(c2cc(Cl)c(Cl)c(Cl)c2)C(F)(F)F)cc1C(F)(F)F (centres unmarked) [F89, (Z)—N-(1H-Indol-1-yl)-4-(1,4,4,4-tetrafluoro-3-(3,4,5-trichlorophenyl)but-1-en-1-yl)-2-(trifluoromethyl)benzamide] | 50 to 100% | 50 to 100% | – | – | –
6 | CN(NC(=O)c1ccc(/C(F)=C/C(c2cc(Cl)c(Cl)c(Br)c2)C(F)(F)F)cc1C(F)(F)F)c1ncccn1 (centres unmarked) [F171, (Z)-4-(3-(3-Bromo-4,5-dichlorophenyl)-1,4,4,4-tetrafluorobut-1-en-1-yl)-N′-methyl-N′-(pyrimidin-2-yl)-2-(trifluoromethyl)benzohydrazide] | 50 to 100% | 50 to 100% | – | – | –
7 | N#CCN(C(=O)c1ccc(/C(F)=C/C(c2cc(Cl)c(Cl)c(Cl)c2)C(F)(F)F)cc1C(F)(F)F)N(CC#N)c1ncccn1 (centres unmarked) [F187, (Z)—N,N′-bis(cyanomethyl)-N′-(pyrimidin-2-yl)-4-(1,4,4,4-tetrafluoro-3-(3,4,5-trichlorophenyl)but-1-en-1-yl)-2-(trifluoromethyl)benzohydrazide] | 50 to 100% | 50 to 100% | – | – | –
8 | Cc1nc(Cl)cc(NNC(=O)c2ccc(/C(F)=C/C(c3cc(Cl)c(Cl)c(Cl)c3)C(F)(F)F)cc2C(F)(F)F)n1 (centres unmarked) [F79, (Z)—N′-(6-Chloro-2-methylpyrimidin-4-yl)-4-(1,4,4,4-tetrafluoro-3-(3,4,5-trichlorophenyl)but-1-en-1-yl)-2-(trifluoromethyl)benzohydrazide] | 50 to 100% | 50 to 100% | – | – | –
9 | CN(NC(=O)c1ccc(/C(F)=C/C(c2cc(Cl)c(Cl)c(Cl)c2)C(F)(F)F)cc1C(F)(F)F)C1CCCC1 (centres unmarked) [F144, (Z)—N′-Cyclopentyl-N′-methyl-4-(1,4,4,4-tetrafluoro-3-(3,4,5-trichlorophenyl)but-1-en-1-yl)-2-(trifluoromethyl)benzohydrazide] | 50 to 100% | 50 to 100% | – | – | –
10 | CC(C)(C)CNNC(=O)c1ccc(/C(F)=C/C(c2cc(Cl)c(Cl)c(Cl)c2)C(F)(F)F)cc1C(F)(F)F (centres unmarked) [F140, (Z)—N′-Neopentyl-4-(1,4,4,4-tetrafluoro-3-(3,4,5-trichlorophenyl)but-1-en-1-yl)-2-(trifluoromethyl)benzohydrazide] | 50 to 100% | 50 to 100% | – | – | –
11 | NN(C(=O)c1ccc(/C(F)=C/C(c2cc(Cl)c(Cl)c(Cl)c2)C(F)(F)F)cc1C(F)(F)F)C1CC1 (centres unmarked) [F112, (Z)—N-Cyclopropyl-4-(1,4,4,4-tetrafluoro-3-(3,4,5-trichlorophenyl)but-1-en-1-yl)-2-(trifluoromethyl)benzohydrazide] | 50 to 100% | 50 to 100% | – | – | –
12 | O=C(NNc1ncccn1)c1ccc(/C(F)=C/C(c2ccc(OC(F)(F)F)c(Cl)c2)C(F)(F)F)cc1C(F)(F)F (centres unmarked) [F50, (Z)-4-(3-(3-Chloro-4-(trifluoromethoxy)phenyl)-1,4,4,4-tetrafluorobut-1-en-1-yl)-N′-(pyrimidin-2-yl)-2-(trifluoromethyl)benzohydrazide] | 50 to 100% | 50 to 100% | – | – | –
13 | CN(CCCC(F)(F)F)NC(=O)c1ccc(/C(F)=C/C(c2cc(Cl)c(Cl)c(Cl)c2)C(F)(F)F)cc1C(F)(F)F (centres unmarked) [F155, (Z)—N′-Methyl-4-(1,4,4,4-tetrafluoro-3-(3,4,5-trichlorophenyl)but-1-en-1-yl)-N′-(4,4,4-trifluorobutyl)-2-(trifluoromethyl)benzohydrazide] | 50 to 100% | 50 to 100% | – | – | –
14 | O=C(NNCCCC(F)(F)F)c1ccc(/C(F)=C/C(c2cc(Cl)c(Cl)c(Cl)c2)C(F)(F)F)cc1C(F)(F)F (centres unmarked) [F103, (Z)-4-(1,4,4,4-tetrafluoro-3-(3,4,5-trichlorophenyl)but-1-en-1-yl)-N′-(4,4,4-trifluorobutyl)-2-(trifluoromethyl)benzohydrazide] | 50 to 100% | 50 to 100% | – | – | –
15 | CN(NC(=O)c1ccc(/C(F)=C/C(c2cc(Cl)c(Cl)c(Cl)c2)C(F)(F)F)cc1C(F)(F)F)c1ccccn1 (centres unmarked) [F59, (Z)—N′-Methyl-N′-(pyridin-2-yl)-4-(1,4,4,4-tetrafluoro-3-(3,4,5-trichloro-phenyl)but-1-en-1-yl)-2-(trifluoromethyl)benzohydrazide] | 50 to 100% | 50 to 100% | – | – | –
16 | O=C(NNc1ncccn1)c1ccc(/C(F)=C/C(c2ccc(Cl)c(Br)c2)C(F)(F)F)cc1C(F)(F)F (centres unmarked) [F178, (Z)-4-(3-(3-Bromo-4-chlorophenyl)-1,4,4,4-tetrafluorobut-1-en-1-yl)-N′-(pyrimidin-2-yl)-2-(trifluoromethyl)benzohydrazide] | 50 to 100% | 50 to 100% | – | – | –
17 | O=C(NNc1cnccn1)c1ccc(/C(F)=C/C(c2cc(Cl)c(Cl)c(Cl)c2)C(F)(F)F)cc1C(F)(F)F (centres unmarked) [F92, (Z)—N′-(Pyrazin-2-yl)-4-(1,4,4,4-tetrafluoro-3-(3,4,5-trichlorophenyl)but-1-en-1-yl)-2-(trifluoromethyl)benzohydrazide] | 50 to 100% | 50 to 100% | – | – | –
18 | Cc1cc(/C(F)=C/C(c2cc(Cl)c(Cl)c(Cl)c2)C(F)(F)F)ccc1C(=O)NNc1ncccn1 (centres unmarked) [F37, (Z)-2-Methyl-N′-(pyrimidin-2-yl)-4-(1,4,4,4-tetrafluoro-3-(3,4,5-trichlorophenyl)but-1-en-1-yl)benzohydrazide] | 50 to 100% | 50 to 100% | 0 | 100 | 100
19 | O=C(NNc1ncccn1)c1ccc(/C(F)=C/C(c2ccc(Cl)c(OC(F)(F)F)c2)C(F)(F)F)cc1C(F)(F)F (centres unmarked) [F42, (Z)-4-(3-(4-Chloro-3-(trifluoromethoxy)phenyl)-1,4,4,4-tetrafluorobut-1-en-1-yl)-N′-(pyrimidin-2-yl)-2-(trifluoromethyl)benzohydrazide] | 50 to 100% | 50 to 100% | – | – | –
20 | O=C(NNCC(F)(F)F)c1ccc(/C(F)=C/C(c2cc(Cl)c(Cl)c(Cl)c2)C(F)(F)F)cc1C(F)(F)F (centres unmarked) [F49, (Z)-4-(1,4,4,4-tetrafluoro-3-(3,4,5-trichlorophenyl)but-1-en-1-yl)-N′-(2,2,2-trifluoroethyl)-2-(trifluoromethyl)benzohydrazide] | 50 to 100% | 50 to 100% | – | – | –
21 | O=C(NNC1=NCCCN1)c1ccc(/C(F)=C/C(c2cc(Cl)c(Cl)c(Cl)c2)C(F)(F)F)cc1C(F)(F)F (centres unmarked) [F27, (Z)-4-(1,4,4,4-Tetrafluoro-3-(3,4,5-trichlorophenyl)but-1-en-1-yl)-N′-(1,4,5,6-tetrahydropyrimidin-2-yl)-2-(trifluoromethyl)benzohydrazide] | 50 to 100% | 50 to 100% | – | – | –
22 | O=C(NNc1ccc(Cl)cn1)c1ccc(/C(F)=C/C(c2cc(Cl)c(Cl)c(Cl)c2)C(F)(F)F)cc1C(F)(F)F (centres unmarked) [F93, (Z)—N′-(5-Chloropyridin-2-yl)-4-(1,4,4,4-tetrafluoro-3-(3,4,5-trichlorophenyl)but-1-en-1-yl)-2-(trifluoromethyl)benzohydrazide] | 50 to 100% | 50 to 100% | – | – | –
23 | COCN(NC(=O)c1ccc(/C(F)=C/C(c2cc(Cl)c(Cl)c(Cl)c2)C(F)(F)F)cc1C(F)(F)F)c1ncccn1 (centres unmarked) [F179, (Z)—N′-(methoxymethyl)-N′-(pyrimidin-2-yl)-4-(1,4,4,4-tetrafluoro-3-(3,4,5-trichlorophenyl)but-1-en-1-yl)-2-(trifluoromethyl)benzohydrazide] | 50 to 100% | 50 to 100% | – | – | –
24 | O=C(NNc1nccc(C(F)(F)F)n1)c1ccc(/C(F)=C/C(c2cc(Cl)c(Cl)c(Cl)c2)C(F)(F)F)cc1C(F)(F)F (centres unmarked) [F44, (Z)-4-(1,4,4,4-Tetrafluoro-3-(3,4,5-trichlorophenyl)but-1-en-1-yl)-2-(trifluoromethyl)-N′-(4-(trifluoromethyl)pyrimidin-2-yl)benzohydrazide] | 50 to 100% | 50 to 100% | – | – | –
25 | CN(CC1CC1)NC(=O)c1ccc(/C(F)=C/C(c2cc(Cl)c(Cl)c(Cl)c2)C(F)(F)F)cc1C(F)(F)F (centres unmarked) [F159, (Z)—N′-(Cyclopropylmethyl)-N′-methyl-4-(1,4,4,4-tetrafluoro-3-(3,4,5-trichlorophenyl)but-1-en-1-yl)-2-(trifluoromethyl)benzohydrazide] | 50 to 100% | 50 to 100% | – | – | –
